{"source": "patent US20160038235A1", "about": "“INGENOL MEBUTATE IN COMBINATION WITH LASER THERAPY FOR THE TREATMENT OF HYPE[…] LESIONS” (LEO LABORATORIES LIMITED, priority 2013, published 2016)", "experiment": "Penetration of ingenol mebutate in static in vitro Franz cell model after fractional Er:YAG laser pre-treatment", "format": "in vitro ADME, porcine", "set-up": "Uptake: unit not given here", "conditions": "for Uptake: 21 h", "procedure": "Penetration of Ingenol mebutate was investigated in a static in vitro Franz cell model, using porcine skin. Prior to ingenol mebutate application, the skin was pre-treated with a fractional 2940 Er:YAG laser. Two settings were used based on pulse durations at 125 or 225 μs, and power at 1.3 or 1.7 W, delivering total energies per laser channel at 11 or 128 mJ, respectively. The settings were investigated at 1, 5 and 10% densities. The shape and depth of the micropores were evaluated in a dissecting microscope. After 21 h in the Franz cells, stratum corneum was tape stripped and liquid chromatography-mass spectrometry (LC-MS) was used to analyze IngMeb concentrations in stratum corneum, skin and receptor fluid."}
{"molecule": "C/C=C(/C)C(=O)O[C@H]1C(C)=C[C@]23C(=O)[C@@H](C=C(CO)[C@@H](O)[C@]12O)[C@H]1[C@@H](C[C@H]3C)C1(C)C", "note": "[ingenol mebutate]", "values": [{"measurement": "Uptake", "setting": "1—No Laser, Dermis", "result": 508}, {"measurement": "Uptake", "setting": "1—No Laser, Epidermis", "result": 606}, {"measurement": "Uptake", "setting": "1—No Laser, Receiver", "result": 0}, {"measurement": "Uptake", "setting": "1—No Laser, SC", "result": 708}, {"measurement": "Enhancement Factor", "setting": "1—No Laser, Viable skin (reference)", "result": 1}, {"measurement": "Uptake", "setting": "1—No Laser, Viable skin", "result": 1114}, {"measurement": "Uptake", "setting": "2—Superficial 1% (approx. 50 μm micropores), Viable skin", "result": 1340}, {"measurement": "Uptake", "setting": "2—Superficial 1%, Dermis", "result": 843}, {"measurement": "Uptake", "setting": "2—Superficial 1%, Epidermis", "result": 558}, {"measurement": "Uptake", "setting": "2—Superficial 1%, Receiver", "result": 122}, {"measurement": "Uptake", "setting": "2—Superficial 1%, SC", "result": 603}, {"measurement": "Enhancement Factor", "setting": "2—Superficial 1%, Viable skin, vs No laser", "result": 1.20}, {"measurement": "Uptake", "setting": "3—Superficial 5%, Dermis", "result": 1584}, {"measurement": "Uptake", "setting": "3—Superficial 5%, Epidermis", "result": 568}, {"measurement": "Uptake", "setting": "3—Superficial 5%, Receiver", "result": 408}, {"measurement": "Uptake", "setting": "3—Superficial 5%, SC", "result": 135}, {"measurement": "Uptake", "setting": "3—Superficial 5%, Viable skin", "result": 2152}, {"measurement": "Enhancement Factor", "setting": "3—Superficial 5%, Viable skin, vs No laser", "result": 1.93}, {"measurement": "Uptake", "setting": "4—Superficial 10%, Dermis", "result": 1801}, {"measurement": "Uptake", "setting": "4—Superficial 10%, Epidermis", "result": 388}, {"measurement": "Uptake", "setting": "4—Superficial 10%, Receiver", "result": 547}, {"measurement": "Uptake", "setting": "4—Superficial 10%, SC", "result": 59}, {"measurement": "Uptake", "setting": "4—Superficial 10%, Viable skin", "result": 2189}, {"measurement": "Enhancement Factor", "setting": "4—Superficial 10%, Viable skin, vs No laser", "result": 1.97}, {"measurement": "Uptake", "setting": "5—Mid-Dermal-1% (approx. 500 μm micropores), Viable skin", "result": 1510}, {"measurement": "Uptake", "setting": "5—Mid-Dermal-1%, Dermis", "result": 1076}, {"measurement": "Uptake", "setting": "5—Mid-Dermal-1%, Epidermis", "result": 366}, {"measurement": "Uptake", "setting": "5—Mid-Dermal-1%, Receiver", "result": 304}, {"measurement": "Uptake", "setting": "5—Mid-Dermal-1%, SC", "result": 369}, {"measurement": "Enhancement Factor", "setting": "5—Mid-Dermal-1%, Viable skin, vs No laser", "result": 1.35}, {"measurement": "Uptake", "setting": "6—Mid-Dermal 5%, Dermis", "result": 1744}, {"measurement": "Uptake", "setting": "6—Mid-Dermal 5%, Epidermis", "result": 386}, {"measurement": "Uptake", "setting": "6—Mid-Dermal 5%, Receiver", "result": 677}, {"measurement": "Uptake", "setting": "6—Mid-Dermal 5%, SC", "result": 127}, {"measurement": "Uptake", "setting": "6—Mid-Dermal 5%, Viable skin", "result": 2126}, {"measurement": "Enhancement Factor", "setting": "6—Mid-Dermal 5%, Viable skin, vs No laser", "result": 1.91}, {"measurement": "Uptake", "setting": "7—Mid-Dermal 10%, Dermis", "result": 1986}, {"measurement": "Uptake", "setting": "7—Mid-Dermal 10%, Epidermis", "result": 260}, {"measurement": "Uptake", "setting": "7—Mid-Dermal 10%, Receiver", "result": 622}, {"measurement": "Uptake", "setting": "7—Mid-Dermal 10%, SC", "result": 9}, {"measurement": "Uptake", "setting": "7—Mid-Dermal 10%, Viable skin", "result": 2224}, {"measurement": "Enhancement Factor", "setting": "7—Mid-Dermal 10%, Viable skin, vs No laser", "result": 2.00}, {"measurement": "accumulation in the epidermis, laser compared with no laser pre-treatment", "setting": "10% density at 50 μm micropores, all densities at 500 μm micropores", "result": "decreased ingenol mebutate in the epidermis"}, {"measurement": "accumulation in stratum corneum (SC), laser pre-treatment compared with no laser pre-treatment", "setting": "50 μm and 500 μm micropores, decreasing with increasing density", "result": "less ingenol mebutate was accumulated"}, {"measurement": "increase in ingenol mebutate in the dermis with laser pre-treatment compared with no laser pre-treatment", "setting": "density dependent (1-10%)", "result": "1.7-3.9 fold"}, {"measurement": "dermis uptake, 10% density compared with 5%, and 500 μm compared with 50 μm micropores", "setting": "laser pre-treatment", "result": "no added benefit was observed"}, {"measurement": "improved uptake in the epidermis relative to uptake without use of the laser", "setting": "maximum", "result": "≤ 4", "unit": "times"}, {"measurement": "delivery of ingenol mebutate to dermis, increase following laser pre-treatment compared to no laser pre-treatment", "setting": "maximum increase", "result": "≤ 4", "unit": "fold"}]}
